Experimental data: PubChem BioAssay AID743417 (Broad Institute, 2014)
Inconclusive results are not listed. Calls of active or inactive are those of the source.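 The calls were made as follows: active = compounds lowering the luciferase signal with a fitted half-maximal dose at most twice their top valid dose (cut at about 30 µM in these data); inconclusive = flat fits with moderate signal loss, or poor fits; inactive = the rest.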

system: Clone20 osteoblast Shn3 3'UTR firefly luciferase, 24 h; test: Schnurri-3 3'UTR-luciferase signal suppressors – cell-based, Clone20 osteoblasts, luminescence, dry powder, set 2, dose response (AID 743417)

Question: Which AC50 does the source give for `Cc1ccc2nc(NNC(=O)c3ccc(S(=O)(=O)N4CCc5ccccc5C4)cc3)sc2c1` here?
Answer: 1.62 µM

Question: With `CCOc1ccc2nc(SC3CC(=O)N(c4ccc(C)cc4)C3=O)sc2c1` (centres undefined) as the compound, how does the AC50 read?
Answer: 15.6 µM

Question: With `Cc1ccc(S(=O)(=O)NCc2ccncc2)cc1C` as the compound, how does the AC50 read?
Answer: 0.585 µM

Question: How did the AC50 turn out when `C=CS(=O)(=O)c1sc(Cl)c(N2CCOCC2)c1[N+](=O)[O-]` was run?
Answer: 1.31 µM

Question: Which AC50 does the source give for `CC(=O)N1CCCc2cc(S(=O)(=O)N3CCCC(C(=O)N4CCN(c5cccc(Cl)c5)CC4)C3)ccc21` (centres undefined) here?
Answer: 1.9 µM

Question: `C=C1CC(COc2ccc3c(C)c(Cl)c(=O)oc3c2)(c2ccccc2)OC1=O` (centres undefined) was tested. Which AC50 did it give?
Answer: 4.82 µM

Question: For `Cc1ccc(-c2nc(NC(=O)c3nn(C)cc3[N+](=O)[O-])sc2C)cc1C`, which AC50 is on record?
Answer: 2.25 µM

Question: For `CC1=NN(c2nc3ccccc3[nH]2)C(=O)C1Cc1ccccc1` (centres undefined), which AC50 is on record?
Answer: 4.11 µM

Question: How did the AC50 turn out when `CC(C)n1c(/C=C/[C@H](O)C[C@H](O)CC(=O)O)c(-c2ccc(F)cc2)c2ccccc21` was run?
Answer: 1.42 µM

Question: For `Cc1cc(NNC(=O)c2cccc(C(F)(F)F)c2)nc2c1c(C)nn2C`, which AC50 is on record?
Answer: 2.43 µM

Question: How did the AC50 turn out when `Cc1ccc(N/C(N)=N/c2nc(C)cc(N3CCCCC3)n2)c(C)c1` was run?
Answer: 0.891 µM

Question: Which AC50 does the source give for `CCCCCc1nc2c(c(=O)c3ccccc3n2C)c(=O)n1C1CCCCCC1` here?
Answer: 8.21 µM

Question: With `Cc1cc(C)n(-c2ccc3cccc(NS(C)(=O)=O)c3n2)n1` as the compound, how does the AC50 read?
Answer: 1.32 µM

Question: `O=C(OCc1ccccc1)c1ccc(NCc2cc(O)ccc2O)cc1` was tested. Which AC50 did it give?
Answer: 0.711 µM

Question: With `O=C1NCCOC(=O)[C@@H](Cc2ccc(F)cc2)CC/C=C/C[C@@H]1CC(=O)N(CCO)Cc1ccccc1` as the compound, how does the AC50 read?
Answer: > 70 µM (inactive)

Question: With `Cc1nc([N+](=O)[O-])c(Br)n1CC(=O)c1ccc2ccccc2c1` as the compound, how does the AC50 read?
Answer: 10.7 µM

Question: Which AC50 does the source give for `CC(=O)c1ccc(N2CCN(c3ccc(S(=O)(=O)NCCCN(C)C)cc3[N+](=O)[O-])CC2)cc1` here?
Answer: 3.78 µM

Question: For `Cc1sc2ncnc(N3CCN(S(=O)(=O)c4ccc(Br)cc4)CC3)c2c1C`, which AC50 is on record?
Answer: 3.59 µM

Question: With `COCCNc1nc(NCc2ccc(C(C)C)cc2)c2sccc2n1` as the compound, how does the AC50 read?
Answer: 3.95 µM

Question: With `CC(C)(C)C(=O)NC(=S)NNC(=O)c1sc2ccccc2c1Cl` as the compound, how does the AC50 read?
Answer: 19.1 µM

Question: For `CCOC(=O)/C(=C\c1ccc([N+](=O)[O-])cc1)C(=O)c1cc(C(C)=O)c(Nc2ccccc2)s1`, which AC50 is on record?
Answer: 2.47 µM

Question: `CC1C(=O)N(Cc2cn(CCC3OCCCO3)nn2)CCS(=O)(=O)N1Cc1ccc(-c2ccc(Cl)c(Cl)c2)cc1` (centres undefined) was tested. Which AC50 did it give?
Answer: 3.39 µM

Question: `CC(=O)c1cn(Cc2ccccc2C#N)c2ccccc12` was tested. Which AC50 did it give?
Answer: 0.527 µM

Question: For `COc1ccccc1NS(=O)(=O)c1cc(NC(=O)c2ccc(Cl)nc2)ccc1Cl`, which AC50 is on record?
Answer: 3.12 µM

Question: `CC(NC(=O)c1cc(COc2ccc3ncccc3c2)on1)c1ccc(F)cc1` (centres undefined) was tested. Which AC50 did it give?
Answer: 2.28 µM

Question: How did the AC50 turn out when `CC(=O)Nc1ccc(NC(=O)c2nc(S(=O)(=O)Cc3ccccc3)ncc2Cl)cc1` was run?
Answer: 0.773 µM

Question: With `Cc1cccc(-c2noc(CN(C(=O)C(c3ccccc3)c3ccccc3)C(C)C)n2)c1` as the compound, how does the AC50 read?
Answer: 6.27 µM

Question: `CC(C)(C)n1nnnc1C(c1cccs1)N1CCCC2(CCCCC2)C1` (centres undefined) was tested. Which AC50 did it give?
Answer: 21.7 µM

Question: For `CC1CN(S(=O)(=O)c2ccc(C(=O)Nc3nc(-c4cc5ccccc5o4)cs3)cc2)CC(C)O1` (centres undefined), which AC50 is on record?
Answer: < 0.26 µM

Question: Which AC50 does the source give for `O=c1c2ccccc2cnn1-c1nc2ccccc2[nH]1` here?
Answer: 1.33 µM

Question: How did the AC50 turn out when `CCn1c(=NC(=O)CCS(=O)(=O)c2ccccc2)sc2cccc(OC)c21` was run?
Answer: 1.28 µM

Question: For `COc1ccc(CNCCc2c(C)[nH]c3ccc(OC(F)(F)F)cc23)c(OC)c1`, which AC50 is on record?
Answer: 0.963 µM

Question: With `Cc1ccc2nc(NC(=O)C3CCN(S(=O)(=O)c4ccc5c(c4)oc(=O)n5C)CC3)sc2c1` as the compound, how does the AC50 read?
Answer: 3.35 µM

Question: `CN(Cc1nccs1)C(=O)c1cc(COc2cccc3cnccc23)on1` was tested. Which AC50 did it give?
Answer: 2.77 µM

Question: `Oc1ccc(CN2CCCc3ccccc32)c2cccnc12` was tested. Which AC50 did it give?
Answer: 5.4 µM

Question: For `CC(C)(C)C(=O)N1CCN(c2ccc(NC(=O)c3ccc([N+](=O)[O-])o3)cc2)CC1`, which AC50 is on record?
Answer: 2.45 µM

Question: `Cc1cc(C(=O)COC(=O)c2ccccc2O)c(C)n1Cc1cccs1` was tested. Which AC50 did it give?
Answer: 8.99 µM

Question: Which AC50 does the source give for `S=C(NNc1ccnc2cc(Cl)ccc12)Nc1ccc(Cl)cc1Cl` here?
Answer: 4.9 µM

Question: With `CSc1nc(N2CCN(Cc3ccc4c(c3)OCO4)CC2)c2ccccc2n1` as the compound, how does the AC50 read?
Answer: 24.1 µM

Question: `CC(=O)O[C@H]1CC[C@@]2(C)C(=CC[C@H]3[C@@H]4CC[C@H](C(C)=O)[C@@]4(C)CC[C@@H]32)C1` was tested. Which AC50 did it give?
Answer: 28.5 µM

Question: With `CC(=O)O[C@H]1CCC2C3CC[C@H]4[C@@H](O)[C@H](O)CC[C@]4(C)C3CC[C@@]21C` (some centres undefined) as the compound, how does the AC50 read?
Answer: > 70 µM (inactive)

Question: Which AC50 does the source give for `CC(C)(C)OC(=O)NCCCCCNC(=O)c1nc[nH]c1C(=O)NCc1ccc(CNC(=O)OC(C)(C)C)cc1` here?
Answer: 3.95 µM

Question: For `Cc1ccc2[nH]c3c(N4CCN(Cc5ccccc5)CC4)ncnc3c2c1`, which AC50 is on record?
Answer: 4.18 µM

Question: `Oc1c(C(Nc2ccccn2)c2ccccn2)ccc2cccnc12` (centres undefined) was tested. Which AC50 did it give?
Answer: 4.36 µM

Question: Which AC50 does the source give for `Cc1ccc(CNC(=O)c2ccc3c(=O)c(O)c(-c4ccc(C)cc4)[nH]c3c2)cc1` here?
Answer: 2.82 µM

Question: How did the AC50 turn out when `COc1ccccc1-c1cc(C(F)(F)F)nc(S(=O)(=O)CCCC(=O)N2CCOCC2)n1` was run?
Answer: 3.02 µM

Question: For `COc1cc(OC)c(OC)cc1CNC(=O)c1cccc(S(=O)(=O)N2CCc3ccccc3C2)c1`, which AC50 is on record?
Answer: 2.39 µM

Question: Which AC50 does the source give for `O=c1c2ccccc2sc2ccc(C#CC3(O)CCCCC3)cc12` here?
Answer: < 0.26 µM

Question: Which AC50 does the source give for `COc1ccc(S(=O)(=O)N2CCN(c3cc(-c4ccccc4)nc4ncnn34)CC2)cc1` here?
Answer: 3.89 µM

Question: With `CCCC(=O)NC(c1ccccc1)c1ccc2cccnc2c1O` (centres undefined) as the compound, how does the AC50 read?
Answer: 1.99 µM

Question: `Cn1c(=O)c2c(nc(NCc3ccco3)n2C/C=C/c2ccccc2)n(C)c1=O` was tested. Which AC50 did it give?
Answer: 1.08 µM

Question: How did the AC50 turn out when `COc1ccc(CNCCC(c2ccc(OC(C)C)cc2)c2ccccc2OC)cc1` (centres undefined) was run?
Answer: 3.86 µM

Question: With `Cc1cc(C2=NNC(=NC3CC3)SC2)c(C)n1-c1ccccc1F` as the compound, how does the AC50 read?
Answer: < 0.26 µM

Question: How did the AC50 turn out when `O=S(=O)(c1cc(F)ccc1F)N1CCN(c2ncnc3ccccc23)CC1` was run?
Answer: 1.85 µM

Question: How did the AC50 turn out when `Cc1ccc(CNC(=O)c2cc3c(C)nc4ccccc4c3o2)cc1` was run?
Answer: 2.49 µM

Question: With `O=C1C(F)=CC(COC(c2ccccc2)(c2ccccc2)c2ccccc2)OC1n1cc(F)c(=O)[nH]c1=O` (centres undefined) as the compound, how does the AC50 read?
Answer: 0.428 µM

Question: `CCOC(=O)C1CCCN(S(=O)(=O)c2ccc(S(=O)(=O)N(CC)CC)cc2)C1` (centres undefined) was tested. Which AC50 did it give?
Answer: 0.512 µM

Question: Which AC50 does the source give for `CCCCCCN1C[C@H](n2cc(-c3ccc(F)cc3)nn2)[C@@H](O)C[C@@H]1c1ccc(Cl)cc1` here?
Answer: 10.3 µM

Question: `Oc1ccc(-c2nc(-c3ccc(O)c(O)c3)cs2)cc1` was tested. Which AC50 did it give?
Answer: 5.07 µM

Question: How did the AC50 turn out when `S=C(NCc1ccc(Cl)cc1)Nc1ccncc1` was run?
Answer: 1.5 µM

Question: Which AC50 does the source give for `Cn1nc(C(C)(C)C)cc1C(=O)N1CCCCC1c1cc(C(=O)Nc2cccc3c2CCCC3)no1` (centres undefined) here?
Answer: 10.2 µM

Question: `CNS(=O)(=O)c1cccc(C(=O)OCc2cc(C(C)=O)ccc2OC)c1` was tested. Which AC50 did it give?
Answer: 11.2 µM

Question: For `C=C(CN(C)C)C(=O)c1ccc(C)cc1C`, which AC50 is on record?
Answer: 0.77 µM

Question: With `COC(=O)c1ccccc1NC(=O)c1nc(S(=O)(=O)Cc2ccccc2)ncc1Cl` as the compound, how does the AC50 read?
Answer: 0.428 µM

Question: With `O=C(NCc1cccnc1)c1ccc(-c2ccc(F)c(F)c2)c2ccoc12` as the compound, how does the AC50 read?
Answer: 3.48 µM

Question: For `Cc1c(CCOC(=O)CC23CC4CC(CC(C4)C2)C3)sc[n+]1CC(=O)c1ccc(Br)cc1`, which AC50 is on record?
Answer: 12.9 µM

Question: `CC(=O)Nc1cccc(NC(=O)CSc2ncc(-c3ccc(Cl)cc3)n2Cc2ccco2)c1` was tested. Which AC50 did it give?
Answer: 4.95 µM

Question: For `CCOC(=O)c1oc2ccc(S(=O)(=O)n3nc(-c4ccc(OC)cc4)cc3N)cc2c1C`, which AC50 is on record?
Answer: 1.99 µM

Question: With `CCCCCn1c(=N)n(CC(O)COc2ccccc2OC)c2ccccc21` (centres undefined) as the compound, how does the AC50 read?
Answer: 2.12 µM

Question: Which AC50 does the source give for `CCN(CC)C(=O)c1oc2ccc(S(=O)(=O)N3CC(C)CC(C)C3)cc2c1C` (centres undefined) here?
Answer: 1.02 µM

Question: For `CCCCn1c(CN2CCN(c3ccc(F)cc3)CC2)nc2c1c(=O)n(C)c(=O)n2C`, which AC50 is on record?
Answer: 2.73 µM

Question: How did the AC50 turn out when `CN(CC(=O)Nc1cccc(S(=O)(=O)N2CCOCC2)c1)CC(=O)Nc1ccc(Cl)c(C(F)(F)F)c1` was run?
Answer: 2.4 µM

Question: With `CC(C)(C)C(=O)/C(=C/c1ccncc1)n1cncn1` as the compound, how does the AC50 read?
Answer: 3.27 µM

Question: `COC(=O)C1=C(c2ccc(OCc3ccccc3)cc2)C[C@@H]2CC[C@H]1N2C(=O)NCc1ccc(OC)c(OC)c1` was tested. Which AC50 did it give?
Answer: 19.7 µM
